Values after ≈ are worked out from the molar mass of the structure shown. Like-named read-outs stand apart in the source and are kept apart here. One block for each molecule: values may come before it.
What was measured:
[1] = test system: plaque forming cells in the spleen; experiment: Effect on humoral antibody formation to Sheep Red Blood Cell (SRBC) in mice (JERNE's hemolytic plaque technique); format: in vivo, Mice (dd/y female); details: for Antibody Forming Cells Number / Antibody Forming Cells Treated Group / Non-treated Group: intraperitoneal, four days
Method: The compound of Example 28 was also tested for its humoral antibody formation to find its efficacy as an immunizing cancer inhibitor. […] For the humoral antibody formation of Bestatin per se see J. Antibiotics, 29(8), 857-859 (August, 1976).
The effect of (2RS,3RS)-3-amino-2-hydroxy-4-hydroxyphenylbutanoyl-(S)-leucine on humoral antibody formation to Sheep Red Blood Cell (SRBC) in mice was studied as follows.
Mice (dd/y female) were immunized by intravenous injection of 10^8 SRBC. Intraperitoneal injection of (2RS,3RS)-3-amino-2-hydroxy-4-hydroxyphenylbutanoyl-(S)-leucine was made soon afterwards.
Four days thereafter the number of plaque forming cells in the spleen were enumerated by JERNE's hemolytic plaque technique [Jerne, N. K.; A. A. Nordin & C. Henry: "The Agar Plaque Technique for Recognizing Antibody-producing Cells" in cell-bound antibodies (Wistar Institute Press, Philadelphia, 1963), pp. 109-122].

aminopeptidase B = biological target: T1, aminopeptidase B (Rattus norvegicus, UniProt O09175); experiment: Inhibitory activity against aminopeptidase B; format: biochemical; details: for IC50: read-out: ID50 (the source's name) (converted); for inhibitory effect relative to Bestatin: compared with Bestatin
T1 construct: aminopeptidase B solution which is prepared by Sephadex 100 chromatography as described by Hopusu et al; from tissue
T1 sequence (O09175 1-650): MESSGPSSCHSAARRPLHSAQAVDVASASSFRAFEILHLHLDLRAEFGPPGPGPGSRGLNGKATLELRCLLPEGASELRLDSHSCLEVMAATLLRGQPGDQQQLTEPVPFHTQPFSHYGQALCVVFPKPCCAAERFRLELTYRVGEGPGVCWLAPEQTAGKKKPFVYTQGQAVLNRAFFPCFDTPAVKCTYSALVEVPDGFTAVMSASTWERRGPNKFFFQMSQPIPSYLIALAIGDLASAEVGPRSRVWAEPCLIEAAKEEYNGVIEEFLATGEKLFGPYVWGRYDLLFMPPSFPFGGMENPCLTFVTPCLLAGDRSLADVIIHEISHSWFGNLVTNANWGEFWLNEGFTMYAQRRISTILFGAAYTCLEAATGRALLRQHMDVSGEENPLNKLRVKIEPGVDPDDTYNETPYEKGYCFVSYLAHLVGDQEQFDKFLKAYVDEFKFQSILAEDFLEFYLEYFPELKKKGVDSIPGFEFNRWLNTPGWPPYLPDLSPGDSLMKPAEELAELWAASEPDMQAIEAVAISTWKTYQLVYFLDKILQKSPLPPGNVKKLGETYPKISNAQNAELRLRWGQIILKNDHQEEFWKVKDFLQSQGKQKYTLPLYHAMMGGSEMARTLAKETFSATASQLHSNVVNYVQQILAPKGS
Method: (A) Inhibitory activity against aminopeptidase B Testing method: The method described by […] in Archives of Biochemistry and Biophysics 114, 557, (1966) was modfied. To the mixture of 0.3 ml. of 1 mM arginine β-naphthylamide and 1.0 Ml. of 0.1 M Tris hydrochloride buffer (pH 7.0), 0.7 Ml. of distilled water with or without a test material is added and warmed at 37° C. for 3 minutes. The reaction is started by addition of 0.2 ml. of aminopeptidase B solution which is prepared by Sephadex 100 chromatography as described by Hopusu et al. […] Fifteen minutes at room temperature thereafter, absorbance (a) at 530 nm is measured by spectrophotometer. […] The inhibition percent is calculated as follows: (b-a)/b×100.

[2] = Biological Testing table after Example 29
[3] = pH 7.0, 37° C., 30 minutes, Table 1

Compound: CC(C)C[C@H](NC(=O)[C@@H](O)[C@H](N)Cc1ccc(O)cc1)C(=O)O [Example 29, (2S,3R)-3-amino-2-hydroxy-4-p-hydroxyphenylbutanoyl-(S)-leucine]
IC50 (aminopeptidase B; [2]): 0.0216 µM
inhibitory effect relative to Bestatin (aminopeptidase B): one-fourteenth of Bestatin

Compound: CC(C)C[C@H](NC(=O)[C@@H](O)[C@@H](N)Cc1ccccc1)C(=O)O [No. 2, (2S,3S)-3-amino-2-hydroxy-4-phenylbutanoyl-(S)-leucine]
ID50 (aminopeptidase B; [3]): 1.25 µg/mL (≈ 4.05 µM)

Compound: CSCC[C@H](NC(=O)[C@@H](O)[C@H](N)Cc1ccccc1)C(=O)O [No. 8, (2S,3R)-3-amino-2-hydroxy-4-phenylbutanoyl-(S)-methionine]
ID50 (aminopeptidase B; [3]): 0.22 µg/mL (≈ 0.674 µM)

Compound: NC(=O)CC[C@H](NC(=O)[C@@H](O)[C@H](N)Cc1ccccc1)C(=O)O [No. 9, (2S,3R)-3-amino-2-hydroxy-4-phenylbutanoyl-(S)-glutamine]
ID50 (aminopeptidase B; [3]): 1.2 µg/mL (≈ 3.71 µM)

Compound: CCCC[C@H](NC(=O)[C@@H](O)[C@H](N)Cc1ccccc1)C(=O)O [No. 11, (2S,3R)-3-amino-2-hydroxy-4-phenylbutanoyl-(S)-norleucine]
ID50 (aminopeptidase B; [3]): 0.13 µg/mL (≈ 0.422 µM)

Compound: CCCCCCC(NC(=O)[C@@H](O)[C@H](N)Cc1ccccc1)C(=O)O (stereo partly drawn) [No. 15, (2S,3R)-3-amino-2-hydroxy-4-phenylbutanoyl-(RS)-2-aminooctanoic acid]
ID50 (aminopeptidase B; [3]): 3.1 µg/mL (≈ 9.21 µM)

Compound: CC(C)C[C@H](NC(=O)C(O)[C@@H](C)N)C(=O)O (some centres unmarked) [No. 16]
ID50 (aminopeptidase B; [3]): 16 µg/mL (≈ 68.9 µM)

Compound: CC(C)C[C@H](NC(=O)C(O)C(N)Cc1ccc(Cl)cc1)C(=O)O (stereo partly drawn) [No. 19, (2RS,3RS)-3-amino-2-hydroxy-4-p-chlorophenylbutanoyl-(S)-leucine]
number of antibody forming cells compared with non-treated group ([1]; 10 mcg., in words): nearly equal to that of non-treated group
Antibody Forming Cells Number ([1]; dose 1 mg.): 208,750±8,000
Antibody Forming Cells Treated Group / Non-treated Group ([1]; dose 1 mg.): 1.67
Antibody Forming Cells Number ([1]; dose 10 mcg.): 133,750±5,600
Antibody Forming Cells Treated Group / Non-treated Group ([1]; dose 10 mcg.): 1.07

Compound: Cc1ccc(CC(N)C(O)C(=O)N[C@@H](CC(C)C)C(=O)O)cc1 (stereo partly drawn) [No. 21, (2RS,3RS)-3-amino-2-hydroxy-4-p-methylphenylbutanoyl-(S)-leucine]
ID50 (aminopeptidase B; [3]): 0.01 µg/mL (≈ 0.031 µM)

Compound: CC(C)C[C@H](NC(=O)[C@@H](O)[C@H](N)Cc1ccc([N+](=O)[O-])cc1)C(=O)O [No. 22, (2S,3R)-3-amino-2-hydroxy-4-p-nitrophenylbutanoyl-(S)-leucine]
ID50 (aminopeptidase B; [3]): 0.01 µg/mL (≈ 0.0283 µM)

Second part, led by results:

IC50 (aminopeptidase B; [2]): 0.308 µM
Compound: CC(C)C[C@H](NC(=O)C(O)C(N)Cc1ccc(O)cc1)C(=O)O (stereo partly drawn) [Example 28, (2RS,3RS)-3-amino-2-hydroxy-4-p-hydroxyphenylbutanoyl-(S)-leucine]
number of antibody forming cells relative to non-treated mice ([1]; 1 mcg.): 1.41 times
number of antibody forming cells relative to non-treated mice ([1]; 10 mcg.): 1.66 times
Antibody Forming Cells Number ([1]; dose 1 mg.): 207,400±8,025
Antibody Forming Cells Treated Group / Non-treated Group ([1]; dose 1 mg.): 1.66
Antibody Forming Cells Number ([1]; dose 0.1 mcg.): 141,000±5,700
Antibody Forming Cells Treated Group / Non-treated Group ([1]; dose 0.1 mcg.): 1.13
Antibody Forming Cells Number ([1]; dose 1 mcg.): 175,800±8,200
Antibody Forming Cells Treated Group / Non-treated Group ([1]; dose 1 mcg.): 1.41
Antibody Forming Cells Number ([1]; dose 10 mcg.): 208,000±7,180
Antibody Forming Cells Treated Group / Non-treated Group ([1]; dose 10 mcg.): 1.66
Antibody Forming Cells Number ([1]; dose 100 mcg.): 261,000±11,700
Antibody Forming Cells Treated Group / Non-treated Group ([1]; dose 100 mcg.): 2.09
number of humoral antibody (forming) cells ([1]; in words): increasing the number of humoral antibody cells to a considerable degree
number of nonspecific antibody forming cells ([1]; in words): did not increase the weight of the spleen or the number of nonspecific antibody forming cells
weight of the spleen ([1]; in words): did not increase the weight of the spleen
number of humoral antibody (forming) cells ([1]; in words, listed as (2RS,3RS)-3-amino-2-hydroxy-4-hydroxybutanoyl-(S)-leucine): excellent effect of increasing the number of antibody forming cells
inhibitory effect relative to Bestatin (aminopeptidase B): substantially the same inhibitory effects as Bestatin

ID50 (aminopeptidase B; [3]): 0.56 µg/mL (≈ 1.82 µM)
Compound: CC(C)C[C@@H](NC(=O)[C@@H](O)[C@H](N)Cc1ccccc1)C(=O)O [No. 3, (2S,3R)-3-amino-2-hydroxy-4-phenylbutanoyl-(R)-leucine]

IC50 (aminopeptidase B; [3]): 0.13 µM
Compound: CC(C)C[C@@H](NC(=O)[C@@H](O)[C@@H](N)Cc1ccccc1)C(=O)O [No. 4, (2S,3S)-3-amino-2-hydroxy-4-phenylbutanoyl-(R)-leucine]

ID50 (aminopeptidase B; [3]): 21.5 µg/mL (≈ 85.2 µM)
Compound: N[C@H](Cc1ccccc1)[C@H](O)C(=O)NCC(=O)O [No. 5, (2S,3R)-3-amino-2-hydroxy-4-phenylbutanoyl-glycine]

IC50 (aminopeptidase B; [3]): 0.162 µM
Compound: CC[C@H](C)[C@H](NC(=O)[C@@H](O)[C@H](N)Cc1ccccc1)C(=O)O [No. 7, (2S,3R)-3-amino-2-hydroxy-4-phenylbutanoyl-(S)-isoleucine]

ID50 (aminopeptidase B; [3]): 4.2 µg/mL (≈ 12.3 µM)
Compound: N[C@H](Cc1ccccc1)[C@H](O)C(=O)N[C@@H](Cc1ccccc1)C(=O)O [No. 12, (2S,3R)-3-amino-2-hydroxy-4-phenylbutanoyl-(S)-phenylalanine]

IC50 (aminopeptidase B; [3]): 2.55 µM
Compound: N[C@H](Cc1ccccc1)[C@H](O)C(=O)N[C@@H](CO)C(=O)O [No. 13, (2S,3R)-3-amino-2-hydroxy-4-phenylbutanoyl-(S)-serine]

ID50 (aminopeptidase B; [3]): 25 µg/mL (≈ 77.1 µM)
Compound: N[C@H](Cc1ccccc1)[C@H](O)C(=O)N[C@@H](CCC(=O)O)C(=O)O [No. 14, (2S,3R)-3-amino-2-hydroxy-4-phenylbutanoyl-(S)-glutamic acid]

ID50 (aminopeptidase B; [3]): 12 µg/mL (≈ 43.7 µM)
Compound: CC(C)C[C@H](NC(=O)C(O)[C@H](N)CC(C)C)C(=O)O (stereo partly drawn) [No. 17, (2RS,3R)-30 amino-2-hydroxy-5-methylhexanoyl-(S)-leucine]

ID50 (aminopeptidase B; [3]): 56 µg/mL (≈ 190 µM)
Compound: CC(C)C[C@H](NC(=O)C(O)[C@H](N)c1ccccc1)C(=O)O (stereo partly drawn) [No. 18, (2RS,3R)-3-amino-2-hydroxy-3-phenylpropionyl-(S)-leucine]

ID50 (aminopeptidase B; [3]): 0.10 µg/mL (≈ 0.309 µM)
Compound: CC(C)C[C@H](NC(=O)[C@@H](O)[C@H](N)Cc1ccc(N)cc1)C(=O)O [No. 23, (2S,3R)-3-amino-2-hydroxy-4-p-aminophenylbutanoyl-(S)-leucine]

IC50 (aminopeptidase B; [3]): 3.34 µM
Compound: CC(C)C[C@H](NC(=O)[C@@H](O)[C@H](N)CC1CCCCC1)C(=O)O [No. 24, (2S,3R)-3-amino-2-hydroxy-4-cyclohexylbutanoyl-(S)-leucine]
